US7732617B2, “Tocopherol derivatives and uses thereof” (Brock University, priority 2007, dated 2010)

Key:
[1] = biological target: T1, tocopherol hydroxylase activity in HepG2/C3A cultures (Homo sapiens, UniProt P78329); experiment: Metabolism of γ-tocopherol (ω-oxidation products by GC-MS) in HepG2/C3A hepatoblastoma cultures; format: cell-based; settings: 48 hours; for EC50: 4 hour pre-incubation, 25 μM γ-tocopherol as substrate, read-out: concentration required to inhibit tocopherol hydroxylase activity by 50% (EC50)
T1 construct: Confluent cultures of the human heptoblastoma cell line, HepG2/C3A; endogenous in cells; host or cells: HepG2/C3A
T1 sequence (P78329 5-520): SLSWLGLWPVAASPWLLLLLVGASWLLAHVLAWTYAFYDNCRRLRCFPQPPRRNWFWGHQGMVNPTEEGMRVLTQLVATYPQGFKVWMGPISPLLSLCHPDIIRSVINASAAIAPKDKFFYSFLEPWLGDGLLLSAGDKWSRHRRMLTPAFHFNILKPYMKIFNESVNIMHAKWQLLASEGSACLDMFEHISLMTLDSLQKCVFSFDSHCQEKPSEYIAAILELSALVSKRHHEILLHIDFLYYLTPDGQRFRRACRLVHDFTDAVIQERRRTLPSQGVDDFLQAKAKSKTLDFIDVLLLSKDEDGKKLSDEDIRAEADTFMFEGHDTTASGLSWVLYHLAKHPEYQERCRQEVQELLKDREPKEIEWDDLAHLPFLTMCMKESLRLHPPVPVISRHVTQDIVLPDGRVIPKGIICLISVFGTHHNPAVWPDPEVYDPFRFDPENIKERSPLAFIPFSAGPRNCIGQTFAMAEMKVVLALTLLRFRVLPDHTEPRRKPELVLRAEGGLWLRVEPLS
Method: (§1) (R)-2-(9-(1H-1,2,4-triazol-1-yl)nonyl)-2,5,7,8-tetramethylchroman-6-ol and γ-tocopherol stock solutions were prepared in ethanol. Confluent cultures of the human heptoblastoma cell line, HepG2/C3A, were pre-incubated with varying concentrations of (R)-2-(9-(1H-1,2,4-triazol-1-yl)nonyl)-2,5,7,8-tetramethylchroman-6-ol or ethanol for 4 hours, followed by addition of 25 μM γ-tocopherol. After 48 hours, culture media was collected and analyzed for ω-oxidation products of γ-tocopherol (the 3′- and 5′-carboxychromanols) by GC-MS, using d9-3′-carboxyethylchromanol as internal standard (Sontag T J et al. (2002) J Biol Chem 277: 25290-25296).
The effect of the triazole compounds were tested in human hepatoblastoma cell culture as described in Example 1, i.e. using 25 μM γ-tocopherol as substrate and 4 hour pre-incubation with the synthetic inhibitors.

HepG2/C3A = experiment: Cell protein and monolayer morphology of HepG2/C3A cultures; format: cell-based, human; settings: 48 hours
Method: as §1
There was no effect of (R)-2-(9-(1H-1,2,4-triazol-1-yl)nonyl)-2,5,7,8-tetramethylchroman-6-ol on cell protein and all monolayers appeared normal in morphology.

tocopherol hydroxylase = experiment: Tissue enrichment in δ-tocopherol in mice in vivo (diet feeding, GC-MS); settings: 10 days
Method: Two groups of mice (n=3) were fed a chow diet enriched with δ-tocopherol (6000 mg per kg diet), with or without 500 mg per kg (R)-2-(9-(1H-1,2,4-triazol-1-yl)nonyl)-2,5,7,8-tetramethylchroman-6-ol. After 10 days on diet, mice were fasted for 5 hrs, euthanized, and tocopherol concentrations determined in plasma, liver and bile, using GC-MS procedures and d9-3′-carboxyethylchromanol as internal standard (Sontag T J et al.).
Therefore data shown in FIG. 2 are presented as the δ-tocopherol/α-tocopherol ratio, where an increase in the ratio reflects enrichment in δ-tocopherol relative to α-tocopherol.

[2] = 500 mg per kg diet with δ-tocopherol 6000 mg per kg diet, versus control, P<0.05

EC50 [1] [nM] | Tocopherol hydroxylase activity ([1]; at compound concentrations above 10 nM, 25 μM γ-tocopherol) | effect on cell protein (HepG2/C3A) | morphology of monolayers (HepG2/C3A) | Compound | δ-tocopherol/α-tocopherol ratio in mouse liver (tocopherol hydroxylase; [2]) | α-tocopherol status (tocopherol hydroxylase; mice, 500 mg per kg diet) | δ-tocopherol/α-tocopherol ratio in bile (tocopherol hydroxylase; [2])
~1 | completely abolished | no effect | normal | Cc1c(C)c2c(c(C)c1O)CC[C@@](C)(CCCCCCCCCn1cncn1)O2 [(R)-2-(9-(1H-1,2,4-triazol-1-yl)nonyl)-2,5,7,8-tetramethylchroman-6-ol] | doubling | no evidence that α-tocopherol status was affected | –
1 to 2 | – | – | – | Cc1c(C)c2c(c(C)c1O)CC[C@@](C)(CCCCCCCCCn1ccnc1)O2 [(R)-2-(9-(1H-imidazol-1-yl)nonyl)-2,5,7,8-tetramethylchroman-6-ol] | – | – | tripled
